The experiment deals with T1, Acetylcholinesterase (AChE) (Rattus norvegicus, UniProt P37136).
T1 construct: corpora striata dissected free, weighed and homogenized in 19 volumes; from tissue; host or cells: rat corpora striata (brain) homogenate, male Wistar rats
Kind of experiment: In vitro inhibition of acetylcholinesterase activity in rat striatum (modified Ellman method). Format: biochemical. The source says: Cholinesterases are found throughout the body, both in the brain and in serum. However, only brain acetylcholinesterease (AChE) distribution is correlated with central cholinergic innervation. […] We have determined in vitro inhibition of acetylcholinesterase activity in rat striatum according to the method described below.
In Vitro Inhibition of Acetylcholinesterase Activity in Rat Striatum
The method described below was used in this invention for assaying anticholinesterase activity. This is a modification of the method of Ellman et al., Biochem. Pharmacol. 7, 88 (1961).
• A. Reagents - • 1. 0.05 M Phosphate buffer, pH 7.2 • (a) 6.85 g NaH₂PO₄·H₂O/100 mi distilled H₂O • (b) 13.40 g Na₂HPO₄·7H₂O/100 ml distilled H₂O • (c) add (a) to (b) until pH reaches 7.2 • (d) Dilute 1:10 • 2. […] If active, IC₅₀ values are determined from the inhibitory activity of subsequent concentrations. • B. Tissue Preparation - Male Wistar rats are decapitated, brains rapidly removed, corpora striata dissected free, weighed and homogenized in 19 volumes (approximately 7 mg protein/ml) of 0.05 M phosphate buffer, pH 7.2, using a Potter-Elvehjem homogenizer. […] Assay Enzyme activity is measured with the Beckman DU-50 spectrophotometer. […] This program also calculates the rate of absorbance change for each cuvette. […]
For orientation: DTNB colorimetry detects thiols as they appear.

pIC50: −log10 of the molar value. Where two headings read alike, the source gives them in different places.

T1 sequence (P37136 32-614): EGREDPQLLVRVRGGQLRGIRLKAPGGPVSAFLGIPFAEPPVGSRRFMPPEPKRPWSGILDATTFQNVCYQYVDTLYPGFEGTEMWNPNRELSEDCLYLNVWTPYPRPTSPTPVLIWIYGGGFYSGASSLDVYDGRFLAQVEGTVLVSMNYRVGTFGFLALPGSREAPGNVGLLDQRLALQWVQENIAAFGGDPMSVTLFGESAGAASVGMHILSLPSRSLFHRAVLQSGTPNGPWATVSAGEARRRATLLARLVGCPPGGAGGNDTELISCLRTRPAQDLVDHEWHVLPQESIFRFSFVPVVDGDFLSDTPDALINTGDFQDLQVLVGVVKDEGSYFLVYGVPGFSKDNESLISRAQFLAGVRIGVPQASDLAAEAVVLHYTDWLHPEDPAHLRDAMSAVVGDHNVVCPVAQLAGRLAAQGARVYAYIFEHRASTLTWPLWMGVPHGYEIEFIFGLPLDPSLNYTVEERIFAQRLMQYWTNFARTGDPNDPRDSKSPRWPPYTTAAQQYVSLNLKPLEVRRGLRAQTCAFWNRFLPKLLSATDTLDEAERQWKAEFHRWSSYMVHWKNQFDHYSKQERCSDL

Consider `O=C(NCc1ccccc1)Oc1ccc2c(ccn2Cc2ccncc2)c1` [Example 3, 1-(4-Pyridinylmethyl)-1H-indol-5-yl phenylmethylcarbamate], for which the pIC50 (Brain acetylcholinesterase, rat striatum homogenate, preincubated 10 minutes at 37°C, acetylthiocholine 5 mM final, pH 7.2, read-out: Inhibitory Concentration IC₅₀) is 4.90.

`CNC(=O)Oc1ccc2c(ccn2Cc2ccncc2)c1` [Example 1, 1-(4-Pyridinylmethyl)-1H-indol-5-yl methylcarbamate]: the pIC50 is 5.17.

These data come from EP0471298B1, “Carbamoyl-1-(pyridinylalkyl)-1H-indoles, indolines and related analogs” (priority 1990, dated 1992).
